Data published in patent US12605397B2, “Deoxy-cytidine or uridine derivatives for use in cancer therapies” (HEMISPHERIAN AS, priority 2019, dated 2026).

Columns and labels:
U87-MG cells = experiment: Survival assay (MTT), U87-MG; details: MTT; for IC50: U87-MG, Glioma, Grade IV; for cytotoxicity to U87-MG cells (cell survival): up to 100 μM
Description: (§5) Cell lines not mentioned above were grown in DMEM (Sigma, Cat.Nr. D6429) supplemented with 10% Fetal Bovine Serum and 100 U/ml penicillin 100 U/ml streptomycin. All cells were maintained in a 5% CO2, humidified, water-jacketed incubator at 37° C. Cells were passed between 70 and 90% confluence.
(§6) In a 96-well plate, 4000 cells in 100 μl of corresponding medium were seeded. The following day, drugs, diluted in DMSO, were added in 8 concentrations in triplicate. Drugs were added as a 4-fold dilution series starting from 100 μM. Cells were incubated with the drugs for 72 hours. Cell proliferation was assessed by MTT assay according to the manufacturer's protocol (ATCC, Cat. Nr. 30-1010K). Cell survival was normalized to the survival of cells treated with DMSO only. Experiment was performed three times, data represent mean of nine wells±SEM.
In a 96-well plate, 4000 cells in 100 μl of corresponding medium were seeded. The following day, drugs, diluted in DMSO, were added in triplicate at a concentration of 100, 25, 6.25, 1.56, 0.39, 0.1, 0.02, or 0.006 ┘M. Cells were incubated with the drugs for 72 hours. Cell proliferation was assessed by MTT assay according to the manufacturer's protocol (ATCC, Cat. Nr. 30-1010K). Cell survival was normalized to the survival of cells treated with DMSO only. Experiment was performed three times, data represent mean of nine wells±SEM.

MCF-7 cells = experiment: Survival assay (MTT), MCF-7; format: cell-based, human; details: MCF-7, Epithelial Adenocarcinoma (Breast), 72 hours, MTT
Description: (§1) Cells were passed between 70 and 90% confluence.
(§2) Cells were incubated with the drugs for 72 hours.

A549 cells = experiment: Survival assay (MTT), A549; format: cell-based, human; details: A549, Lung Carcinoma, 72 hours, MTT
Description: as §1, §2

U937 cells = experiment: Survival assay (MTT), U937; format: cell-based, human; details: U937, Lymophoma, 72 hours, MTT
Description: as §1, §2

SK-OV-3 cells = experiment: Survival assay (MTT), SK-OV-3; format: cell-based, human; details: SK-OV-3, Ovarian Adenocarcinoma, 72 hours, MTT
Description: as §1, §2

A-498 cells = experiment: Survival assay (MTT), A-498; format: cell-based, human; details: A-498, Kidney Carcinoma, 72 hours, MTT
Description: as §1, §2

human cancer cell lines = experiment: Survival assay, range of human cancer cell lines; format: cell-based; details: cell lines of Table 1
Description: as §2
With the knowledge that 5-formyl-2′-deoxycytidine is cytotoxic to cervical carcinoma (HeLa) cells, the study was expanded in two directions: (i) a further compound was assessed: 5-carboxyl-2′-deoxycytidine; and (ii) their cytotoxic effects against a wide range of human cancer cell lines was assessed (Table 1).

NCI-N87 cells = experiment: Survival assay (MTT), NCI-N87; format: cell-based, human; details: NCI-N87, Gastric Carcinoma, 72 hours, MTT
Description: as §1, §2

HeLa cells = experiment: Survival assay (MTT), HeLa; details: for IC50: HeLa
Description: as §5, §6
HeLa cells, grown as described above (Materials and Methods), were treated with 5-hydroxymethyl-2′-deoxycytidine and 5-formyl-2′-deoxycytidine. After three days of treatment with these compounds, cell survival was assessed as described above (Materials and Methods).
After three days of treatment with these compounds at a concentration of 100, 25, 6.25, 1.56, 0.39, 0.1, 0.02, or 0.006 μM, cell survival was assessed by MTT assay as described above (Materials and Methods).

HCT-116 cells = experiment: Survival assay (MTT), HCT-116; format: cell-based, human; details: HCT-116, Colon Carcinoma, 72 hours, MTT
Description: as §2

22Rv1 cells = experiment: Survival assay (MTT), 22Rv1; format: cell-based, human; details: 22Rv1, Prostate Carcinoma, 72 hours, MTT
Description: as §1, §2

MIA PaCa-2 cells = experiment: Survival assay (MTT), MIA PaCa-2; format: cell-based, human; details: MIA PaCa-, Pancreatic Carcinoma, 72 hours, MTT
Description: as §1, §2

A375 cells = experiment: Survival assay (MTT), A375; format: cell-based, human; details: A375, Malignant Melanoma, 72 hours, MTT
Description: as §1, §2

U2OS cells = experiment: Survival assay (MTT), U2OS; format: cell-based, human; details: Bone Osteoscarcoma, 72 hours, MTT
Description: as §1, §2

HL-60 cells = experiment: Survival assay (MTT), HL-60; format: cell-based, human; details: HL-60, Acute Promyelocytic Leukemia, 72 hours, MTT
Description: as §1, §2

glioblastoma multiforme = details: Phase II trials (NCI 06-C-0064E); cited from earlier work
CB152 cells = experiment: Survival assay (MTT), CB152; format: cell-based, human; details: CB152, Glioma, Grade IV, 72 hours
Description: as §1, §2

HaCat cells = experiment: Survival assay (MTT), HaCat; format: cell-based, human; details: Normal, Keratinocytes, 72 hours
Description: as §1, §2
(§3) The present inventors further investigated the extent to which these compounds kill normal human cells; low cytotoxicity against normal human cells is advantageous property for anti-cancer agents. The cytotoxicity of these compounds in various normal human cell lines was therefore investigated (Table 3). Cells were grown and the survival assay was performed as described above (Materials and Methods).

Buffy A cells = experiment: Survival assay (MTT), Buffy A; format: cell-based, human; details: Normal, Bone Marrow, 72 hours
Description: as §1, §2, §3

Buffy M cells = experiment: Survival assay (MTT), Buffy M; format: cell-based, human; details: Normal, Bone Marrow, 72 hours
Description: as §1, §2, §3

[1] = tested on: Glioma, Grade IV cell lines; experiment: Survival assay, panel of 12 patient derived Glioma, Grade IV cell lines; format: cell-based, human; details: of 12 cell lines of Table 2
Description: (§4) Primary glioma neural stem (GNS) cells (G7, G14, G144, G166) were cultured on poly-D-lysine (Merck Millipore, Cat. Nr. A-003-E) and laminin (R&D Systems, Cat.Nr. 3446-005-01) coated plates in neural stem cell medium (50% DMEM-F12 (Thermofisher, Cat. Nr. 21041025), 50% neurobasal medium (Thermofisher, Cat. Nr. 10888-022), N2 (Life Technologies, Cat. Nr. A-003-E) and B27 supplements (Life Technologies, Cat.Nr. 12587010), 1 mM sodium pyruvate (Life Technologies, Cat.Nr. 11360-039), 2 mM glutamax (Life Technologies, Cat. Nr. 35050038), 1 mM HEPES (Fisher Scientific, Cat. Nr. BP299-1), 0.1 mM β-mercaptoethanol (Life Technologies, Cat. Nr. 31350010), 1× nonessential amino acids (Life Technologies, Cat. Nr. 11140-035), 0.006% bovine serum albumin (Sigma, Cat. Nr. A8577-10ML), 4 μg/ml heparin (Sigma, Cat. Nr. H3149-25KU), 100 U/ml penicillin, 100 μg/ml streptomycin, 20 ng/ml hEGF (R&D Systems, Cat. Nr. 236-EG-200), 10 ng/ml bFGF (Peprotech, Cat. Nr. 100-18B).
as §1, §2
Due to lack of activity in previous assays, 5-carboxyl-2′-deoxycytidine was not included in this more rigorous analysis.

G30 cells = experiment: Survival assay (MTT), G30; format: cell-based, human; details: G30, Glioma, Grade IV, 72 hours
Description: as §1, §2

Arpe19 cells = experiment: Survival assay (MTT), Arpe19; format: cell-based, human; details: Arpe19, Normal, Ectoderm; 72 hours, MTT
Description: as §2, §3

G166 cells = experiment: Survival assay (MTT), G166; format: cell-based, human; details: G166, Glioma, Grade IV, 72 hours
Description: as §4, §2

Buffy C cells = experiment: Survival assay (MTT), Buffy C; format: cell-based, human; details: Normal, Bone Marrow, 72 hours
Description: as §1, §2, §3

MRC5 cells = experiment: Survival assay (MTT), MRC5; format: cell-based, human; details: MRC5, Normal, Lung; 72 hours, MTT
Description: as §1, §2, §3

G26 cells = experiment: Survival assay (MTT), G26; format: cell-based, human; details: G26, Glioma, Grade IV, 72 hours
Description: as §1, §2

G14 cells = experiment: Survival assay (MTT), G14; format: cell-based, human; details: G14, Glioma, Grade IV, 72 hours
Description: as §4, §2

U3017 cells = experiment: Survival assay (MTT), U3017; format: cell-based, human; details: U3017, Glioma, Grade IV, 72 hours
Description: as §1, §2

DIPG007 cells = experiment: Survival assay (MTT), DIPG007; format: cell-based, human; details: DIPG007, Glioma, Grade IV, 72 hours
Description: as §1, §2

SF188 cells = experiment: Survival assay (MTT), SF188; format: cell-based, human; details: SF188, Glioma, Grade IV, 72 hours
Description: as §1, §2

G144 cells = experiment: Survival assay (MTT), G144; format: cell-based, human; details: G144, Glioma, Grade IV, 72 hours
Description: as §4, §2

G7 cells = experiment: Survival assay (MTT), G7; format: cell-based, human; details: G7, Glioma, Grade IV, 72 hours
Description: as §4, §2

U3013 cells = experiment: Survival assay (MTT), U3013; format: cell-based, human; details: U3013, Glioma, Grade IV, 72 hours
Description: as §1, §2

## Nc1nc(=O)n([C@H]2C[C@H](O)[C@@H](CO)O2)cc1I [5-iodo-2′-deoxycytidine, reference compound]
U87-MG cells; Homo sapiens, U-87 MG, 72 h
  IC50: > 25 µM

## Nc1nc(=O)n([C@H]2C[C@H](O)[C@@H](CO)O2)cc1C(=O)O [2d5caC, 5-carboxy-2′-deoxycytidine, reference compound]
MCF-7 cells; Homo sapiens, MCF7
  IC50: > 25 µM
A549 cells; Homo sapiens, A549, 72 h
  IC50: > 25 µM
U937 cells; Homo sapiens, U-937
  IC50: > 25 µM
SK-OV-3 cells; Homo sapiens
  IC50: > 25 µM
A-498 cells; Homo sapiens, A498, 72 h
  IC50: > 25 µM
Human cancer cell lines
  cytotoxicity in the cancer cell lines evaluated: no cytotoxic properties
NCI-N87 cells; Homo sapiens
  IC50: > 25 µM
HeLa cells; Homo sapiens, 72 h
  IC50: > 25 µM
HCT-116 cells; Homo sapiens, HCT-116, 72 h
  IC50: > 25 µM
22Rv1 cells; Homo sapiens, 22Rv1, 72 h
  IC50: > 25 µM
MIA PaCa-2 cells; Homo sapiens, MIA PaCa-2
  IC50: > 25 µM
A375 cells; Homo sapiens, A-375
  IC50: > 25 µM
U87-MG cells; Homo sapiens, U-87 MG, 72 h
  IC50: > 25 µM
U2OS cells; Homo sapiens
  IC50: > 25 µM
HL-60 cells; Homo sapiens
  IC50: > 25 µM

## Nc1nc(=O)n([C@H]2C[C@H](O)[C@@H](COP(=O)(O)OP(=O)(O)OP(=O)(O)O)O2)cc1CO [5-hydroxymethyl-2′-deoxycytidine-5′-triphosphate]
U87-MG cells; 72 hours
  cytotoxicity to U87-MG cells (cell survival): cytotoxic

## Avastin (RTM): bevacizumab, an angiogenesis inhibitor with multiple oncology indications
Glioblastoma multiforme
  overall survival benefit: did not yield an overall survival benefit

## Nc1nc(=O)n([C@H]2C[C@H](O)[C@@H](COP(=O)(O)OP(=O)(O)OP(=O)(O)O)O2)cc1C=O [5-formyl-2′-deoxycytidine-5′-triphosphate]
HeLa cells; three days of treatment, MTT, up to 100 μM
  cytotoxicity to HeLa cells (cell survival): unable to survive
U87-MG cells; 72 hours
  cytotoxicity to U87-MG cells (cell survival): cytotoxic

## CC(=O)OCc1cn([C@H]2C[C@H](O)[C@@H](CO)O2)c(=O)[nH]c1=O [5-acetoxymethyl-2′-deoxyuridine]
U87-MG cells; 72 hours
  cytotoxicity to U87-MG cells (cell survival): unable to survive

## Nc1nc(=O)n([C@H]2C[C@H](O)[C@@H](CO)O2)cc1Cl [5-chloro-2′-deoxycytidine, reference compound]
U87-MG cells; Homo sapiens, U-87 MG, 72 h
  IC50: > 25 µM

## COCc1cn([C@H]2C[C@H](O)[C@@H](CO)O2)c(=O)[nH]c1=O [5-methoxymethyl-2′-deoxyuridine]
U87-MG cells; 72 hours
  cytotoxicity to U87-MG cells (cell survival): unable to survive

## O=c1[nH]cc(F)c(=O)[nH]1 [5fU, 5-flurouracil, reference compound]
CB152 cells
  IC50: 6.5 µM
MCF-7 cells
  IC50: > 25 µM
A549 cells
  IC50: 1.85 µM
U937 cells
  IC50: 7.45 µM
HaCat cells
  IC50: 0.523 µM
SK-OV-3 cells
  IC50: 3.76 µM
Buffy A cells
  IC50: > 25 µM
A-498 cells
  IC50: 2.37 µM
Buffy M cells
  IC50: > 25 µM
[1]
  number of Glioma, Grade IV cell lines killed: 11 of 12
NCI-N87 cells
  IC50: 1.52 µM
G30 cells
  IC50: 23.3 µM
Arpe19 cells
  IC50: > 25 µM
G166 cells
  IC50: 4.81 µM
Buffy C cells
  IC50: > 25 µM
MRC5 cells
  IC50: > 25 µM
HeLa cells; Cervical Adenocarcinoma, 72 hours, MTT
  IC50: > 25 µM
HCT-116 cells
  IC50: 3.54 µM
22Rv1 cells
  IC50: > 25 µM
G26 cells
  IC50: 7.12 µM
MIA PaCa-2 cells
  IC50: 8.1 µM
G14 cells
  IC50: 11.6 µM
U3017 cells
  IC50: 3.92 µM
A375 cells
  IC50: 7.87 µM
U87-MG cells; 72 hours
  IC50: > 25 µM
U2OS cells
  IC50: 2.89 µM
DIPG007 cells
  IC50: 4.3 µM
SF188 cells
  IC50: 3.88 µM
G144 cells
  IC50: 6.8 µM
G7 cells
  IC50: 6.46 µM
HL-60 cells
  IC50: > 25 µM
U3013 cells
  IC50: 4.14 µM

## Nc1nc(=O)n([C@H]2C[C@H](O)[C@@H](CO)O2)cc1Br [5-bromo-2′-deoxycytidine, reference compound]
U87-MG cells; Homo sapiens, U-87 MG, 72 h
  IC50: > 25 µM
